Results from ChEMBL document CHEMBL5724914, “Linking interpersonal differences in gut microbiota composition and drug biotransformation activity” (2024).

Experiments:
[1] = (§1) The drug is tested on WLS-073 corresponding to human gut metagenome with ENA study accession number: PRJEB37062 and ENA sample accession number: ERS12561749 for biotransformation under anaerobic condition. The drug concentrations were measured over 9 timepoints collected between 0 and 24 hours of incubation by liquid-chromatography-coupled mass spectrometry (LC–MS); details: 2 µM
[2] = human gut metagenome, 24 h, 2 µM
[3] = human gut metagenome, 24 h, 2 µM; remark: listed apart in the source
[4] = human gut metagenome, 24 h, 2 µM; remark: listed apart in the source
[5] = human gut metagenome, 24 h, 2 µM; remark: listed apart in the source
[6] = human gut metagenome, 24 h, 2 µM; remark: listed apart in the source
[7] = human gut metagenome, 24 h, 2 µM; remark: listed apart in the source
[8] = as §1, with “WLS-090” for “WLS-073”, “ERS12561753” for “ERS12561749”; details: 2 µM
[9] = human gut metagenome, 24 h, 2 µM; remark: listed apart in the source
[10] = as §1, with “WLS-039” for “WLS-073”, “ERS12561746” for “ERS12561749”; details: 2 µM
[11] = human gut metagenome, 24 h, 2 µM; remark: listed apart in the source
[12] = as §1, with “Z-003” for “WLS-073”, “pig” for “human”, “ERS12561803” for “ERS12561749”; details: 2 µM
[13] = human gut metagenome, 24 h, 2 µM; remark: listed apart in the source
[14] = as §1, with “WLS-220” for “WLS-073”, “ERS12561769” for “ERS12561749”; details: 2 µM
[15] = human gut metagenome, 24 h, 2 µM; remark: listed apart in the source
[16] = human gut metagenome, 24 h, 2 µM; remark: listed apart in the source
[17] = as §1, with “WLS-086” for “WLS-073”, “ERS12561752” for “ERS12561749”; details: 2 µM
[18] = human gut metagenome, 24 h, 2 µM; remark: listed apart in the source
[19] = human gut metagenome, 24 h, 2 µM; remark: listed apart in the source
[20] = as §1, with “WLS-077” for “WLS-073”, “ERS12561750” for “ERS12561749”; details: 2 µM
[21] = human gut metagenome, 24 h, 2 µM; remark: listed apart in the source
[22] = human gut metagenome, 24 h, 2 µM; remark: listed apart in the source
[23] = human gut metagenome, 24 h, 2 µM; remark: listed apart in the source
[24] = as §1, with “WLS-069” for “WLS-073”, “ERS12561748” for “ERS12561749”; details: 2 µM
[25] = human gut metagenome, 24 h, 2 µM; remark: listed apart in the source
[26] = as §1, with “WLS-370” for “WLS-073”, “ERS12561793” for “ERS12561749”; details: 2 µM
[27] = as §1, with “WLS-007” for “WLS-073”, “ERS12561742” for “ERS12561749”; details: 2 µM
[28] = human gut metagenome, 24 h, 2 µM; remark: listed apart in the source
[29] = human gut metagenome, 24 h, 2 µM; remark: listed apart in the source
[30] = human gut metagenome, 24 h, 2 µM; remark: listed apart in the source
[31] = human gut metagenome, 24 h, 2 µM; remark: listed apart in the source
[32] = human gut metagenome, 24 h, 2 µM; remark: listed apart in the source
[33] = human gut metagenome, 24 h, 2 µM; remark: listed apart in the source
[34] = as §1, with “WLS-310” for “WLS-073”, “ERS12561785” for “ERS12561749”; details: 2 µM
[35] = human gut metagenome, 24 h, 2 µM; remark: listed apart in the source
[36] = human gut metagenome, 24 h, 2 µM; remark: listed apart in the source
[37] = human gut metagenome, 24 h, 2 µM; remark: listed apart in the source
[38] = as §1, with “WLS-240” for “WLS-073”, “ERS12561773” for “ERS12561749”; details: 2 µM
[39] = human gut metagenome, 24 h, 2 µM; remark: listed apart in the source
[40] = as §1, with “WLS-052” for “WLS-073”, “ERS12561747” for “ERS12561749”; details: 2 µM
[41] = human gut metagenome, 24 h, 2 µM; remark: listed apart in the source
[42] = as §1, with “WLS-027” for “WLS-073”, “ERS12561744” for “ERS12561749”; details: 2 µM
[43] = human gut metagenome, 24 h, 2 µM; remark: listed apart in the source
[44] = human gut metagenome, 24 h, 2 µM; remark: listed apart in the source
[45] = human gut metagenome, 24 h, 2 µM; remark: listed apart in the source
[46] = human gut metagenome, 24 h, 2 µM; remark: listed apart in the source
[47] = as §1, with “WLS-098” for “WLS-073”, “ERS12561754” for “ERS12561749”; details: 2 µM
[48] = human gut metagenome, 24 h, 2 µM; remark: listed apart in the source
[49] = as §1, with “WLS-006” for “WLS-073”, “ERS12561741” for “ERS12561749”; details: 2 µM
[50] = human gut metagenome, 24 h, 2 µM; remark: listed apart in the source
[51] = as §1, with “WLS-170” for “WLS-073”, “ERS12561762” for “ERS12561749”; details: 2 µM
[52] = human gut metagenome, 24 h, 2 µM; remark: listed apart in the source
[53] = as §1, with “Z-004” for “WLS-073”, “to” for “to human gut”, “ERS12561804” for “ERS12561749”; details: 2 µM
[54] = human gut metagenome, 24 h, 2 µM; remark: listed apart in the source
[55] = human gut metagenome, 24 h, 2 µM; remark: listed apart in the source
[56] = as §1, with “WLS-010” for “WLS-073”, “ERS12561743” for “ERS12561749”; details: 2 µM
[57] = human gut metagenome, 24 h, 2 µM; remark: listed apart in the source
[58] = human gut metagenome, 24 h, 2 µM; remark: listed apart in the source
[59] = as §1, with “WLS-038” for “WLS-073”, “ERS12561745” for “ERS12561749”; details: 2 µM
[60] = as §1, with “WLS-350” for “WLS-073”, “ERS12561789” for “ERS12561749”; details: 2 µM
[61] = human gut metagenome, 24 h, 2 µM; remark: listed apart in the source
[62] = as §1, with “WLS-082” for “WLS-073”, “ERS12561751” for “ERS12561749”; details: 2 µM
Also: call rule not given here.

SMILES: CC(=O)Oc1ccc(C(c2ccc(OC(C)=O)cc2)c2ccccn2)cc1 [BISACODYL]
- Bacterial Biotransformation [1]: Compound metabolized
- Bacterial Biotransformation [2]: Compound metabolized
- Bacterial Biotransformation [3]: Compound metabolized
- Bacterial Biotransformation [4]: Compound metabolized
- Bacterial Biotransformation [5]: Compound metabolized
- Bacterial Biotransformation [6]: Compound metabolized
- Bacterial Biotransformation [7]: Compound metabolized
- Bacterial Biotransformation [8]: Compound metabolized
- Bacterial Biotransformation [9]: Compound metabolized
- Bacterial Biotransformation [10]: Compound metabolized
- Bacterial Biotransformation [11]: Compound metabolized
- Bacterial Biotransformation [12]: Compound metabolized
- Bacterial Biotransformation [13]: Compound metabolized
- Bacterial Biotransformation [14]: Compound metabolized
- Bacterial Biotransformation [15]: Compound metabolized
- Bacterial Biotransformation [16]: Compound metabolized
- Bacterial Biotransformation [17]: Compound metabolized
- Bacterial Biotransformation [18]: Compound metabolized
- Bacterial Biotransformation [19]: Compound metabolized
- Bacterial Biotransformation [20]: Compound metabolized
- Bacterial Biotransformation [21]: Compound metabolized
- Bacterial Biotransformation [22]: Compound metabolized
- Bacterial Biotransformation [23]: Compound metabolized
- Bacterial Biotransformation [24]: Compound metabolized
- Bacterial Biotransformation [25]: Compound metabolized
- Bacterial Biotransformation [26]: Compound metabolized
- Bacterial Biotransformation [27]: Compound metabolized
- Bacterial Biotransformation [28]: Compound metabolized
- Bacterial Biotransformation [29]: Compound metabolized
- Bacterial Biotransformation [30]: Compound metabolized
- Bacterial Biotransformation [31]: Compound metabolized
- Bacterial Biotransformation [32]: Compound metabolized
- Bacterial Biotransformation [33]: Compound metabolized
- Bacterial Biotransformation [34]: Compound metabolized
- Bacterial Biotransformation [35]: Compound metabolized
- Bacterial Biotransformation [36]: Compound metabolized
- Bacterial Biotransformation [37]: Compound metabolized
- Bacterial Biotransformation [38]: Compound metabolized
- Bacterial Biotransformation [39]: Compound metabolized
- Bacterial Biotransformation [40]: Compound metabolized
- Bacterial Biotransformation [41]: Compound metabolized
- Bacterial Biotransformation [42]: Compound metabolized
- Bacterial Biotransformation [43]: Compound metabolized
- Bacterial Biotransformation [44]: Compound metabolized
- Bacterial Biotransformation [45]: Compound metabolized
- Bacterial Biotransformation [46]: Compound metabolized
- Bacterial Biotransformation [47]: Compound metabolized
- Bacterial Biotransformation [48]: Compound metabolized
- Bacterial Biotransformation [49]: Compound metabolized
- Bacterial Biotransformation [50]: Compound metabolized
- Bacterial Biotransformation [51]: Compound metabolized
- Bacterial Biotransformation [52]: Compound metabolized
- Bacterial Biotransformation [53]: Compound metabolized
- Bacterial Biotransformation [54]: Compound metabolized
- Bacterial Biotransformation [55]: Compound metabolized
- Bacterial Biotransformation [56]: Compound metabolized
- Bacterial Biotransformation [57]: Compound metabolized
- Bacterial Biotransformation [58]: Compound metabolized
- Bacterial Biotransformation [59]: Compound metabolized
- Bacterial Biotransformation [60]: Compound metabolized
- Bacterial Biotransformation [61]: Compound metabolized
- Bacterial Biotransformation [62]: Compound metabolized

SMILES: Cc1nc(Nc2ncc(C(=O)Nc3c(C)cccc3Cl)s2)cc(N2CCN(CCO)CC2)n1 [DASATINIB ANHYDROUS]
- Bacterial Biotransformation [1]: Compound metabolized
- Bacterial Biotransformation [2]: Compound NOT metabolized
- Bacterial Biotransformation [3]: Compound NOT metabolized
- Bacterial Biotransformation [4]: Compound metabolized
- Bacterial Biotransformation [5]: Compound metabolized
- Bacterial Biotransformation [6]: Compound NOT metabolized
- Bacterial Biotransformation [7]: Compound metabolized
- Bacterial Biotransformation [8]: Compound metabolized
- Bacterial Biotransformation [9]: Compound metabolized
- Bacterial Biotransformation [10]: Compound metabolized
- Bacterial Biotransformation [11]: Compound metabolized
- Bacterial Biotransformation [13]: Compound metabolized
- Bacterial Biotransformation [14]: Compound metabolized
- Bacterial Biotransformation [15]: Compound NOT metabolized
- Bacterial Biotransformation [16]: Compound metabolized
- Bacterial Biotransformation [17]: Compound metabolized
- Bacterial Biotransformation [18]: Compound NOT metabolized
- Bacterial Biotransformation [19]: Compound metabolized
- Bacterial Biotransformation [20]: Compound NOT metabolized
- Bacterial Biotransformation [21]: Compound metabolized
- Bacterial Biotransformation [22]: Compound NOT metabolized
- Bacterial Biotransformation [23]: Compound metabolized
- Bacterial Biotransformation [24]: Compound NOT metabolized
- Bacterial Biotransformation [25]: Compound NOT metabolized
- Bacterial Biotransformation [26]: Compound metabolized
- Bacterial Biotransformation [27]: Compound NOT metabolized
- Bacterial Biotransformation [28]: Compound metabolized
- Bacterial Biotransformation [29]: Compound metabolized
- Bacterial Biotransformation [30]: Compound NOT metabolized
- Bacterial Biotransformation [31]: Compound metabolized
- Bacterial Biotransformation [32]: Compound metabolized
- Bacterial Biotransformation [33]: Compound metabolized
- Bacterial Biotransformation [34]: Compound metabolized
- Bacterial Biotransformation [35]: Compound metabolized
- Bacterial Biotransformation [36]: Compound NOT metabolized
- Bacterial Biotransformation [37]: Compound metabolized
- Bacterial Biotransformation [38]: Compound metabolized
- Bacterial Biotransformation [39]: Compound metabolized
- Bacterial Biotransformation [40]: Compound metabolized
- Bacterial Biotransformation [41]: Compound NOT metabolized
- Bacterial Biotransformation [42]: Compound metabolized
- Bacterial Biotransformation [43]: Compound metabolized
- Bacterial Biotransformation [44]: Compound metabolized
- Bacterial Biotransformation [45]: Compound metabolized
- Bacterial Biotransformation [46]: Compound metabolized
- Bacterial Biotransformation [47]: Compound metabolized
- Bacterial Biotransformation [48]: Compound metabolized
- Bacterial Biotransformation [49]: Compound metabolized
- Bacterial Biotransformation [50]: Compound metabolized
- Bacterial Biotransformation [51]: Compound metabolized
- Bacterial Biotransformation [52]: Compound NOT metabolized
- Bacterial Biotransformation [54]: Compound metabolized
- Bacterial Biotransformation [55]: Compound NOT metabolized
- Bacterial Biotransformation [56]: Compound metabolized
- Bacterial Biotransformation [57]: Compound NOT metabolized
- Bacterial Biotransformation [58]: Compound NOT metabolized
- Bacterial Biotransformation [59]: Compound metabolized
- Bacterial Biotransformation [60]: Compound NOT metabolized
- Bacterial Biotransformation [61]: Compound metabolized
- Bacterial Biotransformation [62]: Compound metabolized
